This note sets out measurements from paper PMC9263924, “Mycobacterium tuberculosis Methyltransferase Rv1515c Can Suppress Host Defense Mechanisms by Modulating Immune Functions Utilizing a Multipronged Mechanism” (Frontiers in Molecular Biosciences, 2022).

The target in this test is Rv1515c (Mycobacterium tuberculosis, UniProt P71794).
Chain of Rv1515c (P71794 entry or part of it): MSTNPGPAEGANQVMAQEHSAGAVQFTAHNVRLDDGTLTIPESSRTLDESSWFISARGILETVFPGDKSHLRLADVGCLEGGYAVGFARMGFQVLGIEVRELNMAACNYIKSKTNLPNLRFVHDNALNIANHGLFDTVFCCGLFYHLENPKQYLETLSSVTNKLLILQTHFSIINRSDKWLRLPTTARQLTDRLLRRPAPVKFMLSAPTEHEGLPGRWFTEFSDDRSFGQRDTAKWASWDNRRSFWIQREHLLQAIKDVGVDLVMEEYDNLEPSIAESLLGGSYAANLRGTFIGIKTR

As for `C[S+](CC[C@H](N)C(=O)O)C[C@H]1O[C@@H](n2cnc3c(N)ncnc32)[C@H](O)[C@@H]1O` (stereo partly shown) [S-adenosylmethionine], the “EpiQuik DNA MTase kit, 5-methylcytosine antibody detection, absorbance 450 nm” value is “ability of the Rv1515c to transfer a methyl group from Adomet to cytosine”.
